Test results from PMC8741257, “Identification of novel non-toxic and anti-angiogenic α-fluorinated chalcones as potent colchicine binding site inhibitors” (Journal of Enzyme Inhibition and Medicinal Chemistry, 2022).

Experiments:
[1] = tested on: human normal cells (LO2, 293T, macrophage) versus MGC-803; test: Selectivity of growth inhibition, human normal cells versus MGC-803; type: cell-based
Procedure: The effect of compound 4c on three types of normal human cell lines including LO2 (human hepatocyte cells), 293 T (human embryonic kidney cell) and THP-1-derived macrophages was then determined.

[2] = tested on: microtubule network of MGC-803 cells; test: Immunofluorescent staining of the cellular microtubule network; type: cell-based, human; details: 18, 36, and 72 nM
Procedure: Since tubulin-microtubule system plays a crucial role in mechanical solidity, cell motility and mitosis, an immunofluorescent staining assay was further carried out in MGC-803 cells to evaluate the inhibitory effects of 4c on microtubule cytoskeleton. […] Upon treatment with higher concentrations of 4c, the dispersed tubulin dimers were even more obvious and there is no tubular structure left.
MGC-803 cells (3 × 10^4 cells/well) were seeded into 6 well-plates and then treated with vehicle control 0.1% DMSO and 4c (18, 36, 72nΜ). The cells were rinsed twice with PBS and fixed by 4% paraformaldehyde for 20 min. Subsequently, microtubule detection was performed using a fluorescent antibody against α-tubulin in 5% BSA and incubated for 5 ∼ 6 h at room temperature. To stain cell nucleus, crystals were incubated with Hoechst for 10 min. After washing with PBST to remove redundant stain, the samples were visualised under an Olympus laser scanning confocal microscope.

[3] = tested on: MGC-803 cells; test: Cell cycle distribution (PI, flow cytometry); type: cell-based, human
Excerpt: Most inhibitors of microtubule polymerisation are able to block mitosis in G2/M phase, which ultimately leads to apoptosis by disrupting tubulin-microtubule balance. To elucidate whether the cytotoxicity of 4c was due to cell cycle arrest, flow cytometry analysis and PI marking method were used to evaluate the effects of 4c on the MGC-803 cell cycle distribution. […] A significant difference was also observed when we further evaluated its effects using different time points (Figure 5(C,D)). MGC-803 cells treated with 4c (36 nM) can be arrested in the G2/M phase from 30.37% at 6 h to 45.37% at 24 h.
MGC-803 cells (15 × 10^4 cells/well) were inoculated in 6-well plates and incubated at 37 °C for 24 h, and then treated with 4c (18, 36, 72nΜ). The collected cells were washed with cold PBS and then fixed in 75% ethanol in PBS at −20 °C overnight. The cells were then washed twice with PBS buffer and then stained with 500 μL of […] (PI, 5 mg) staining solution […] for 15 min in the dark. Samples were immediately assayed for DNA content using a flow cytometer (Becton, Dickinson and Company, USA). The percentage of cell cycle phases was analysed by the software provided in the instrument.

[4] = tested on: MGC-803 cells; test: Transwell cell invasion assay; type: cell-based, human; details: compared with control group
Procedure: Metastasis is one of the leading causes of morbidity and mortality of cancer patients. Microtubules-targeting inhibitors have also been reported to interfere with cell migration and invasion. Accordingly, the in vitro would healing assay and Transwell assays were performed to investigate the inhibitory effect of compound 4c on the migration and invasion of MGC-803 cells. As shown Figure 8(A,C), the scratches healing rate in the control group was approximately 64%. By contrast, the cells treated with 4c have much smaller scratched areas recovery at all concentrations. […] Cell invasion is an important malignant behaviour during cancer metastasis. In Tanswell assay, MGC-803 cells were seeded into upper chambers with pre-coated Matrigel stimulating base membrane in order to assess the cellular invasion.
Matrix gel was thawed overnight at 4 °C. […] Transwell was placed into a 24-well plate, 35% acetic acid (300 μL) was added to the upper chamber of the chamber, and after acetic acid completely entered the lower chamber, 100 μL of acetic acid from the lower chamber was aspirated into a 96-well plate, and three replicate wells of each concentration were shaken for 10 min, and the absorbance was measured at 560 nm with an enzyme marker.

[5] = tested on: ROS in MGC-803 cells; test: Intracellular ROS generation (DCFH-DA, flow cytometry); type: cell-based, human; details: 72 nM, 48 h, control 0.17%
Procedure: It is now generally accepted that mitochondrial dysfunction is the main source of elevated ROS levels, accompanied by changes in mitochondrial membrane potential and activation of downstream Caspases. To further evaluate the alterations of intracellular ROS levels after cells exposed to 4c, flow cytometry was analysed with 2′,7′-Dichlorodihydrofluorescein diacetate (DCFH-DA) as fluorescent probe. As shown in Figure 7(B), 4c induced intracellular ROS generation in a dose-dependent manner. […] According to above-mentioned results, we can deduce that 4c induced cell apoptosis through a variety of ways including the disruption of the mitochondrial membrane potential, accumulation of intracellular ROS level and regulation of apoptosis-related proteins expression in cancer cells.
Load the probe and dilute DCFH-DA with serum-free culture medium at 1:1000 to a final concentration of […]. Spread the cultured cells in a 6-well plate with about 1.5 × 10^5 cells per well and incubate overnight at 37 °C. After 48 h of incubation with 4c (18, 36, 72nΜ) the cell culture medium was removed and diluted DCFH-DA was added and incubated for 20 min at 37 °C in an incubator, and the mixture was inverted every 3–5 min. […] Add 200 μL of PBS for resuspension, place on ice, and subsequently assay by flow cytometry using standard procedures.

SMILES: COc1cc(C(=O)/C(F)=C/c2c[nH]c3cc(Br)ccc23)cc(OC)c1OC [4c, (Z)-3–(6-bromo-1H-indol-3-yl)-2-fluoro-1–(3,4,5-trimethoxyphenyl)prop-2-en-1-one]
- selectivity ratio towards MGC-803 cells and macrophage cells [1]: up to 21.2 folds
- Effect on cellular microtubule network [2]: remarkable disruption of microtubule reticular network
- percentage of cells in G2/M ([3]; 18 nM, control 32.15%): 50.47%
- percentage of cells in G2/M ([3]; 36 nM, 6 h): 30.37%
- percentage of cells in G2/M ([3]; 36 nM, control 32.15%): 83.65%
- percentage of cells in G2/M ([3]; 72 nM, control 32.15%): 90.21%
- invasion ability (Transwell, Matrigel) [4]: significant reduced invasion ability
- FITC-A+ (ratio of DCF positive cells) [5]: 93.6%
